Data published in paper PMC9457815 (Molecules, 2022).
Read-outs that look alike come from different tables or passages of the source.

What was measured:
[1] = Cytotoxicity assay (Cell-Titer GLO, cellular ATP levels) on Huh7 cells; format: cell-based, human; details: human; Huh7 cells, 72 h, ATP levels
Experimental: (§1) Briefly, 7.5 × 10^3 Huh7 cells/well or 2 × 10^4 THP-1 cells/well were plated in black 96-well plates and incubated at 37 °C for 24 h. […] Each dilution was added to the cell plates to obtain final concentrations of 6.25 µM to 200 µM for alkaloids and DMSO, and 0.39 µM to 50 µM for lycorine. […] The plates were then incubated at 37 °C and 5% CO2 for 72 h. Cell-Titer GLO reagent was added to the plates previously equilibrated to room temperature. The plates were then mixed on an orbital shaker for 2 min and incubated for 10 min at room temperature. The luminescence signal was measured with a microplate spectrophotometer (Synergy H1, Biotek, Dorval, QC, Canada). Viability percentages were obtained by calculating the ratio of the signal corresponding to each alkaloid concentration to the signal of the equimolar DMSO control. All experiments were performed at least twice. Median cytotoxic concentrations (CC50) were calculated using QuestGraph IC50 calculator software (MLA Quest Graph™ IC50 Calculator, AAT Bioquest, Inc., Sunnyvale, CA, USA).

Huh7 cells = experiment: as above; format: cell-based, human; details: for cytotoxicity to Huh7 cells: tested concentrations (lycorine: below 50 µM); for cell death, Huh7 cells: 200 µM
Experimental: as §1

DENVGFP = experiment: Antiviral assay, propagative DENVGFP vector in Huh7 cells, flow cytometry; format: cell-based, dengue virus (serotype 2); details: Dengue virus, Huh-7, 72 h, read-out: EC50 DENV
Experimental: (§2) The plasmid used to obtain the DENVGFP vector (pFK-DVs-G2A) was provided by Ralf Bartenschlager (Heidelberg University, Heidelberg, Germany) and Laurent Chatel-Chaix (Institut National de la Recherche Scientifique, Laval, QC, Canada). The 2 plasmids used to obtain the HIV-1GFP vector were PMD2.G and pNL4-3-GFPΔEnvΔNef. For DENVGFP, viral titer was measured using a plaque assay in Vero cells, as described in [53]. For HIV-1GFP, the viral titer was obtained by measuring the infectivity of serially diluted vectors in CRFK cells, as described in [54].
(§3) Briefly, 7.5 × 10^3 Huh7 cells/well or 2 × 10^4 THP-1 cells/well were plated in 96-well plates at 37 °C for 24 h. […] Each dilution was added to the cell plates to obtain final concentrations of 1.56 µM to 200 µM for alkaloids and matched concentrations of DMSO, and 0.05 µM to 6.4 µM for lycorine or 0.078 µM to 10 µM for raltegravir. Lycorine and raltegravir were used as DENV and HIV-1 inhibitor controls, respectively. DENVGFP and HIV-1GFP were then added at multiplicities of infection (MOIs) of 0.025 and 0.1, respectively. Plates were placed in an incubator at 37 °C and 5% CO2 for 72 h. Afterward, the cells were fixed in 3.7% formaldehyde and the percentage of infection was measured using flow cytometry with an FC500 MPL cytometer (Beckman Coulter, Inc., Brea, CA, USA). Data analysis was performed using Flowjo software (BD, FlowJo LLC, Ashland, OR, USA). All experiments were performed at least twice. EC50 values were calculated using QuestGraph IC50 calculator software (MLA Quest Graph™ IC50 Calculator. AAT Bioquest, Inc. https://www.aatbio.com/tools/ic50-calculator (accessed on 1 July 2022)).

THP-1 cells = experiment: Cytotoxicity assay (Cell-Titer GLO, cellular ATP levels) on THP-1 cells; format: cell-based, human
Experimental: as §1

[2] = as above; format: cell-based, human; details: human; THP-1 cells, 72 h, ATP levels
Experimental: as §1

BuChE = target: T1, BuChE (Equus caballus, UniProt P81908); experiment: biochemical; set-up: species or system equine; details: for IC50 BuChE / IC50: nid = no inhibition detected at 1 mM
T1 construct: purchased Sigma-Aldrich
Experimental: (§4) Pharmacological properties specific to AD were tested first on AChEs (electric eel) according to the kit (ab138871, Abcam) that provides a colorimetric measure of enzyme activity and inhibition. Briefly, the reaction was performed in a final volume of 100 μL in 96-well microplates. […] For this, DMSO-dissolved test compounds were added to a final concentration of 1 mM (1% DMSO) in duplicates. Next, a 5 μL reaction mixture containing equal amounts of acetylthiocholine (20X) and DTNB (20X) was added to each well. Ultimately, the enzyme solution was added to a final concentration of 0.25 U/mL and the absorbance was measured at 412 nm in kinetic mode for 10 min using a microplate reader (Synergy H1, Biotek, Dorval, QC, Canada). The same procedure was utilized for the BuChE (equine, Sigma-Aldrich) activity test, except that the enzyme concentration was 2 U/mL per reaction. DTNB (Bis(3-carboxy-4-nitrophenyl) disulfide, Ellman’s Reagent), acetylthiocholine iodide, and butyrylthiocholine iodide were purchased from Sigma-Aldrich (Oakville, ON, Canada). […] Experiments were performed at least twice. Inhibition was calculated as follows:I = 100 × (1 − Δi/Δe) where Δi is the difference in the absorbance between two time points in the presence of the inhibitor, and Δe is the difference in the absorbance using two time points in presence of DMSO or an appropriate solvent.

HIV-1GFP = experiment: microbe, parasite or virus in culture; format: cell-based, human immunodeficiency virus (HIV)-1; details: for EC50: Human immunodeficiency virus 1, THP-1, 72 h, read-out: EC50 HIV-1; for inhibition at 200 µM: Human immunodeficiency virus 1, THP-1, read-out: inhibition of HIV-1 infection
Experimental: as §2, §3

AChE = target: T2, AChE (Electrophorus electricus, UniProt O42275); experiment: biochemical; format: biochemical, electric eel; details: substrate ATCh; nid = no inhibition detected at 1 mM
T2 construct: purchased Abcam ab138871
Experimental: as §4

POP = target: T3, POP (Homo sapiens, UniProt P48147); experiment: Prolyloligopeptidase (POP) inhibition assay, fluorogenic kit; format: biochemical; details: substrate DPP (Ala-Pro-AMC dipeptide), nid = no inhibition detected at 1 mM
T3 construct: purchased BPS Bioscience Inc
T3 sequence (P48147 1-710): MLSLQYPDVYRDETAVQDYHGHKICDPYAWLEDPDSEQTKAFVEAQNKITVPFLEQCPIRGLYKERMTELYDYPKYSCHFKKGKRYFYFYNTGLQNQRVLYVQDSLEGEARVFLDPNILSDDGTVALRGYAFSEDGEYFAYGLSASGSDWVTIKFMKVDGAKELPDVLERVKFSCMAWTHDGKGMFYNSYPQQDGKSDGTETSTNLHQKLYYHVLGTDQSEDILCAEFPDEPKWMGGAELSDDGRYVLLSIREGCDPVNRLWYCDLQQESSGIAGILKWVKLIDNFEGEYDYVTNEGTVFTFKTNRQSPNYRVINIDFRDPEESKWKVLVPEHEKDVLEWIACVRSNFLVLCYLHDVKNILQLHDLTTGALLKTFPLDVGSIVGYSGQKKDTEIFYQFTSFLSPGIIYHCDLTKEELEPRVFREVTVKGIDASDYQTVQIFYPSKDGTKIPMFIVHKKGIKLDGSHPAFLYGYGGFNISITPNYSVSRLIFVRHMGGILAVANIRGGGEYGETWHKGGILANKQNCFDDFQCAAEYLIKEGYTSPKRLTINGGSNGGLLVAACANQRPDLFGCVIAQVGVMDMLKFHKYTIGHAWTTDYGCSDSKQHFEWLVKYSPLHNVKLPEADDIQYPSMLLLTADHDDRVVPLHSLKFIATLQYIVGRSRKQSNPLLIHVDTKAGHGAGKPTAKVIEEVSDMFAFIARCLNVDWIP
Experimental: POP enzyme activity was measured using the Fluorogenic POP Assay Kit (BPS Bioscience Inc., San Diego, CA, USA). The reaction was carried out in a final volume of 50 μL in a low-binding NUNC microtiter plate. All compounds were tested at a final concentration of 250 μM in duplicate. A DPP substrate was added to a final concentration of 2.5 μM and the POP enzyme solution was subsequently added to a final concentration of 1 ng/μL. Optical densities at 440 nm were recorded using a microplate reader (Synergy H1, Biotek, QC, Canada).

[3] = tested concentrations (lycorine: below 50 µM)
[4] = 100 µM, killing a majority of the cells
[5] = 200 µM, killing a majority of the cells

T2 sequence (O42275 24-633): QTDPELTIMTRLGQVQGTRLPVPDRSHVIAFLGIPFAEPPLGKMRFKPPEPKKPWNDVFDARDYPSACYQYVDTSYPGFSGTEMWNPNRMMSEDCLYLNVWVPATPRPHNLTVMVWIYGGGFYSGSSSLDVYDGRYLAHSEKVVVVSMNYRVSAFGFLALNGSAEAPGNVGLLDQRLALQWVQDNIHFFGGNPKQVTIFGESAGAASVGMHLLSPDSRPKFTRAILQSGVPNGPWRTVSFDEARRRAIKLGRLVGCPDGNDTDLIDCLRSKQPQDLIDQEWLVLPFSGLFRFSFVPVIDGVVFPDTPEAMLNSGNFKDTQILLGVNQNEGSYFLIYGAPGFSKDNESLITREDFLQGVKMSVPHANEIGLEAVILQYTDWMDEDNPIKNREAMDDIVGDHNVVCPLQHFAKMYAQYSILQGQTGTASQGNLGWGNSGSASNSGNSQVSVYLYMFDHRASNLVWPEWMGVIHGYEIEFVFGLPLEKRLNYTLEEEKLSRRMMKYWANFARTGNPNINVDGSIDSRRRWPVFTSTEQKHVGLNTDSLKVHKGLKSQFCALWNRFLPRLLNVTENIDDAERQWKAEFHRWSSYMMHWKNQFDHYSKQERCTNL
T1 sequence (P81908 whole entry): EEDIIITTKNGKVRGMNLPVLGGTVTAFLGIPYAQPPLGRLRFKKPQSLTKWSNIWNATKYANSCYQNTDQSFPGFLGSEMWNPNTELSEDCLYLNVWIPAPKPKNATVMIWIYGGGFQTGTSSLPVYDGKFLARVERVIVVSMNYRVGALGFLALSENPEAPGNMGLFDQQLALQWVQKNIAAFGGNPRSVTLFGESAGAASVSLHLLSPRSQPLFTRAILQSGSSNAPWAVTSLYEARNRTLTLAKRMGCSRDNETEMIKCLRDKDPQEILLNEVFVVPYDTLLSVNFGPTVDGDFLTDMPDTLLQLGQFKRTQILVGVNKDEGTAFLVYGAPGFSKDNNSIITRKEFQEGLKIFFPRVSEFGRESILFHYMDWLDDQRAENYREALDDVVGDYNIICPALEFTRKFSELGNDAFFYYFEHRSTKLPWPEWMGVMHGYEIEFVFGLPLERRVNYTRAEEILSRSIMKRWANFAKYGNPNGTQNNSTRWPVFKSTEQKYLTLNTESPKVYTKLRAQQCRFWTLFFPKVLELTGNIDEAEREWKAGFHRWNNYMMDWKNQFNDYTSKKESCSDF

Structure (SMILES)	CC50 at 72 h [1] [µM]	cytotoxicity to Huh7 cells (Huh7 cells)	EC50 (DENVGFP) [µM]	cytotoxicity to THP-1 cells (THP-1 cells; [3])	CC50 at 72 h [2] [µM]	IC50 BuChE (BuChE; substrate ATCh)	IC50 BuChE (BuChE; substrate BuTCh)	EC50 (HIV-1GFP) [µM]	IC50 AChE (AChE)	IC50 (POP; read-out: IC50 POP) [µM]	inhibition at 200 µM (HIV-1GFP) [%]	cell death, Huh7 cells (Huh7 cells) [%]	cytotoxicity to THP-1 cells (THP-1 cells; [4])	IC50 (BuChE; substrate ATCh) [µM]	IC50 (BuChE; substrate BuTCh) [µM]	cytotoxicity to THP-1 cells (THP-1 cells; [5])	inhibition at 2000 µM (BuChE; read-out: BuChE inhibition (positive control)) [%]	loss of BuChE inhibition compared with norbelladine (BuChE) [fold]	IC50 (AChE) [µM]	IC50 (POP; IC50 POP) [µM]
O[C@H]1[C@H]2c3cc4c(cc3CN3CCC(=C[C@@H]1O)[C@H]23)OCO4 [Lycorine, reference compound]	17.4	cytotoxic	0.09	cytotoxic	10.7	–	–	–	–	–	–	–	–	–	–	–	–	–	–	–
COc1ccc(/C=N/CCc2ccc(O)cc2)cc1OC [3′,4′-O-dimethylnorcraugsodine]	> 200	–	> 200	–	> 200	nid	nid	> 200	nid	–	–	–	–	–	–	–	–	–	–	–
Oc1ccc(CC/N=C/c2ccc(O)c(O)c2)cc1 [Norcraugsodine]	122	–	37.7	–	27	nid	nid	55.5	nid	567	94 to 99	50	highly cytotoxic	–	–	–	–	–	–	–
Oc1ccc(CCNCc2ccc(O)c(O)c2)cc1 [Norbelladine]	72.6	–	50.4	–	82.2	–	–	50.5	nid	–	94 to 99	50	–	33.3	26.1	highly cytotoxic	–	–	–	–
COc1ccc(CNCCc2ccc(O)cc2)cc1O [4′-O-methylnorbelladine]	> 200	–	40.5	–	> 200	–	–	108	nid	–	–	–	–	42.9	91.6	–	–	–	–	–
COc1ccc(/C=N/CCc2ccc(O)cc2)cc1O [4′-O-methylnorcraugsodine]	> 200	–	> 200	–	> 200	nid	nid	> 200	nid	–	–	–	–	–	–	–	–	–	–	–
Cc1nnc(C(=O)NC(C)(C)c2nc(C(=O)NCc3ccc(F)cc3)c(O)c(=O)n2C)o1 [Raltegravir, reference compound]	–	–	–	–	> 10	–	–	0.098	–	–	–	–	–	–	–	–	–	–	–	–
CCN(C)C(=O)Oc1cccc([C@H](C)N(C)C)c1 [rivastigamine, Rivastigmine, reference compound]	–	–	–	–	–	–	–	–	–	–	–	–	–	–	–	–	100	–	–	–
COc1ccc(CNCCc2ccc(O)cc2)cc1OC [3′,4′-O-dimethylnorbelladine]	131	–	27.5	–	> 200	–	–	98.3	–	–	–	50	–	87.8	87.9	–	–	3	320	–
COc1cc(CNCCc2ccc(O)cc2)ccc1O [3′-O-methylnorbelladine]	> 200	–	44.9	–	99	–	–	135	nid	–	–	–	–	40.2	58.9	highly cytotoxic	–	–	–	1230
O=Cc1ccc(O)c(O)c1 [3,4-DHBA, 3,4-dihydroxybenzaldehyde]	173	–	24.1	–	31.7	nid	nid	51.5	nid	–	94 to 99	50	highly cytotoxic	–	–	–	–	–	–	–
COc1cc(/C=N/CCc2ccc(O)cc2)ccc1O [3′-O-methylnorcraugsodine]	> 200	weakly cytotoxic	176	–	> 200	nid	nid	107	nid	–	94 to 99	–	–	–	–	–	–	–	–	1150
NCCc1ccc(O)cc1 [Tyramine]	> 200	not cytotoxic	> 200	not cytotoxic	> 200	nid	nid	> 200	nid	–	–	–	–	–	–	–	–	–	–	–
